“And” between values parts separate entries of the source, which are not always exact repeats. Equal values may be shown once. Ends that are not written are not given here.
Columns and labels:
glutaminase = glutaminase activity in HT-29 cell lysate; format: cell-based; settings: HT-29, 2 μM, 30-90 minutes
Description: FIGS. 16a-b depict the zinc-charged peptides inhibiting glutaminase activity in HT-29 cancer cells. Glutaminase is another important enzyme responsible for the synthesis of ATP in mitochondria. […] The inhibition of the enzyme glutaminase, along with the inhibition of respiratory chains in cancer cells explain the depletion of ATP in cancer cells shown in FIG. 5.

respiratory chain I [1] = experiment: respiratory chain I activity, mitochondria of normal colon cells; format: biochemical; settings: normal CCD8Co colon cells; 5 μM, 2 hours (FIG. 15c)
Protocol: (§1) For the testing depicted in FIGS. 15a-15d, […] zinc-charged 4H3 was utilized and compared to a control. In this test, mitochondria was isolated from the cell line, and complex I and III activity was tested using a Cayman Mitocheck Complex I & III Activity Kit. […] However, the zinc-charged 4H3 increased the activity of respiratory chain I by 21% but inhibited respiratory chain III by 42% in normal CCD8Co colon cells.

respiratory chain I [2] = experiment: respiratory chain I activity, mitochondria isolated from HT-29 cells; format: biochemical; settings: HT-29 colon cancer cells; 5 μM, 2 hours (FIG. 15a)
Protocol: as §1

[3] = test system: cancer-associated fibroblasts; experiment: cellular ATP level in cancer-associated fibroblasts; format: cell-based; settings: 2 μM, 2 hours
Protocol: FIGS. 12a-b display a cell culture study showing the ATP levels and hexokinase II activities of CAFs that were cultured with 2 μM zinc-charged 4H3 for 2 hours. […] These findings confirmed that the zinc-charged peptides caused ATP depletion and hexokinase II inhibition in CAFs.

HT-29 cancer cells = experiment: tissue distribution: mouse tissue homogenates incubated with HT-29 cells, percentage of cells under apoptosis; format: cell-based; settings: mice, five days administration
Protocol: These observations were confirmed by studying the tissue distribution of the zinc-charged 4H3 in mice after five days administration, as shown in FIG. 3. For these tests, tissue homogenates were taken from the mice five days after receiving the zinc-charged 4H3, then prepared and incubated with HT-29 cancer cells for various times, followed by the determination of the percentage of cell under apoptosis.

[4] = pharmacokinetic study, serum half-life; format: in vivo
respiratory chain III [5] = experiment: respiratory chain III activity, mitochondria of normal colon cells; format: biochemical; settings: normal CCD8Co colon cells; 5 μM, 2 hours (FIG. 15d)
Protocol: as §1

Tau protein = experiment: brain Tau protein in mice (ELISA); format: in vivo; settings: for decrease in brain Tau protein: 1 mg/mouse, 5 days, oral
Protocol: (§2) FIGS. 11a-d provide the graphical representations of these observations. FIG. 11a depicts the level of brain ATP in mice that were orally administered zinc-charged 4H3 compared to mice who were given the control. […] FIG. 11b depicts the level of brain Tau protein ATP in mice that were orally administered zinc-charged 4H3 compared to mice who were given the control. In this test, a 2.7 μg protein load was utilized. […] FIG. 11c depicts a retest of FIG. 11b, but with a lower protein load utilized instead. […] Lastly, FIG. 11d depicts the brain P38 MAPK levels in mice that were orally administered zinc-charged 4H3 compared to mice who were given the control. In this test, the mice given the zinc-charged 4H3 saw their brain P38 MAPK levels decrease by 61%.

P38 MAPK = experiment: brain P38 MAPK level in mice; format: in vivo; settings: 1 mg/day for 5 days, oral
Protocol: as §2

HT-29 colon cancer cells = experiment: apoptotic effect on HT-29 cells of saliva from a human volunteer after oral zinc-charged 4H3; format: cell-based; settings: for time at which saliva-induced apoptotic activity peaked: human volunteer
Protocol: It has been shown that the zinc-charged peptide induces apoptosis in various cancer lines. FIGS. 1a, 1b, and 2 show this effect of the zinc-charged peptide on the HT-29 cancer cell line after the zinc-charged peptide was given to a human volunteer. Specifically, 200 mg of zinc-charged 4H3 was orally given to the volunteer in a liquid form. The peptide mixture was an undialyzed sample, such that the zinc-charged 4H3 in the liquid had not yet been separated from the saturated EDTA and free zinc.
Saliva samples were then collected from the volunteer at 4-, 6-, 8-, 9-, 12- and 17-hours post-ingestion of the zinc-charged 4H3. The saliva samples were then incubated with HT-29 cancer cells for either 14-hours or 24-hours to observe the apoptotic effect. FIG. 1a depicts the percentage of cell shrinkage and death of HT-29 colon cancer cells after incubation for 14- and 24-hours with the human saliva samples containing the zinc-charged 4H3 noted above. As shown, the saliva sample collected 4-hours post-ingestion has little effect on the HT-29 cancer cells. […] The saliva-induced apoptotic activity thus peaked at 9-hours post-ingestion.
FIGS. 1B-f depicts microscopic slides of the HT-29 cancer cells after being incubated for […] with specific saliva samples. […] FIG. 1d depicts the saliva sample taken from the volunteer 4 hours after the zinc-charged peptide was ingested. FIGS. 1e and 1f depict saliva samples collected from the volunteer after 10-hour ingestion.
FIG. 2 depicts a dry, solid sample of the zinc-charged 4H3 that was administered to a human volunteer. Specifically, 150 mg of zinc-charged 4H3 was orally given to the volunteer in a dry solid form. This sample was dialyzed, dried down, and had arginine added as an absorption enhancer such that the dried powder included only the zinc-charged 4H3 and arginine. As with the test shown in FIG. 1a, the saliva samples were taken from the human subject 0-, 3-, 6-, 9-, 12-, 15-, 18-, 21-, and 24-hours post-ingestion. The saliva samples were then incubated with HT-29 cancer cells, and their apoptotic activity recorded after 6-, 10-, 14-, and 24-hours.

[6] = test system: human pancreatic cancer Bx-PC3-G mouse orthotopic model; experiment: orthotopic pancreatic cancer model in mice; format: in vivo; settings: oral, 21-day period
Protocol: In this test, two doses of zinc-charged 4H3 and a control of only the vehicle were orally administered to mice with orthotopic pancreatic cancer. The zinc-charged 4H3 was administered in a “low dose” of 0.5 mg per mouse and a “high dose” of 1.0 mg per mouse.

[7] = brain ATP level in mice fed zinc-charged 4H3; format: in vivo; settings: 1 mg/day for 5 days, oral
Protocol: as §2

respiratory chain III [8] = experiment: respiratory chain III activity, mitochondria isolated from HT-29 cells; format: biochemical; settings: HT-29 colon cancer cells; 5 μM, 2 hours (FIG. 15b)
Protocol: as §1

Question: Which results are given for EYGLFQISNKK [zinc-charged 4H3]?
Answer: amount of glutamate and alpha-ketoglutarate (glutaminase): lower amount; glutaminase activity in the cell lysate (glutaminase): significantly lower glutaminase activity; increase of activity of respiratory chain I (respiratory chain I [1]): 21%; inhibition of respiratory chain I (respiratory chain I [2]): 70.9%; reduction of ATP levels in CAFs [3]: 95.6%; apoptosis activity of tissue homogenate (HT-29 cancer cells; colon): did not display any apoptosis activity; apoptosis activity of tissue homogenate (HT-29 cancer cells; jaw): did not display any apoptosis activity; apoptosis activity of tissue homogenate (HT-29 cancer cells; lung): did not display any apoptosis activity; apoptosis activity of tissue homogenate (HT-29 cancer cells; pancreas): contained apoptosis activity; half-life [4]: 8 h; inhibition of respiratory chain III (respiratory chain III [5]): 42%; reduction of Tau protein in the brain (Tau protein; 1 mg/day for 5 days, both protein loads): 22.4-27.5%; decrease in brain Tau protein (Tau protein; 0.55 μg protein load): 22.4%; decrease in brain Tau protein (Tau protein; 2.7 μg protein load): 27.5%; reduction of brain P38 MAPK (P38 MAPK): 61%; time at which saliva-induced apoptotic activity peaked (HT-29 colon cancer cells; 150 mg oral, dry solid form with arginine): 12 h; time at which saliva-induced apoptotic activity peaked (HT-29 colon cancer cells; 200 mg oral, liquid form, undialyzed): 9 hours post-ingestion; effect of saliva sample on HT-29 cancer cells (HT-29 colon cancer cells; saliva 4 hours after ingestion, 36 hours incubation): very little effect; effect of saliva sample on HT-29 cancer cells (HT-29 colon cancer cells; saliva after 10-hour ingestion, 36 hours incubation): clear apoptosis activity; effect of saliva sample on HT-29 cancer cells (HT-29 colon cancer cells; saliva collected 4-hours post-ingestion, 14- and 24-hour incubation, 200 mg liquid): little effect; effect of saliva sample on HT-29 cancer cells (HT-29 colon cancer cells; saliva collected 10-hours post-ingestion, 14-hour and 24-hour incubations, 200 mg liquid): cell rounded up, cell shrinkage, and membrane blebbing; reduction of mean tumor size ([6]; high dose 1.0 mg per mouse): 38.0%; reduction of mean tumor size ([6]; low dose 0.5 mg per mouse): 28.1%; increase of brain ATP [7]: 89.9% and 89.8%; inhibition of respiratory chain III (respiratory chain III [8]): 71.2%

— patent publication US11639372B1, “Zinc-charged peptides for the treatment of cancer and alzheimer's disease” (priority 2021, dated 2023)
